The values below come from US9084815B2, “Method for treating damage induced by an anti-tumor agent, treating mucositis and treating tumor” (SUCAMPO AG, priority 2009, dated 2015).

Experiment [1] deals with 5-FU induced toxicity (ileum tissue damage). Briefly: Effects of Compound A against 5-FU induced toxicity: histopathological tissue damage score of ileum. It is filed as in vivo. To be noted: for Total score (tissue damage): 5-FU 50 mg/kg i.p. Day 1 to 4, ileum H&E on Day 7. As for the experimental part: After 1 week of acclimatization period, the experiment started (Day 0). Compound A ((−)-7-{(2R,4aR,5R,7aR)-2-[(3S)-1,1-difluoro-3-methylpentyl]-2-hydroxy-6-oxooctahydrocyclopenta[b]pyran-5-yl}heptanoic acid) (3, 10, 30 μg/kg) or vehicle was administered orally once daily for 5 days from Day 0 to 4 (Schedule 1). In other dosing schedule group, Compound A (30 μg/kg) was administered orally once daily from Day 4 to Day 6 (Schedule 2). 5-FU (50 mg/kg) was administered intraperitoneally once daily for 4 days from Day 1 to 4. On Day 1, 2, 3, and 4,5-FU was administered immediately after administration of Compound A or vehicle. During the experiment period (Day 0-7), animals were weighed every day. On Day 7, the animals were anesthetized by isofluran. Ileum was excised and fixed in 10% formalin. Paraffin-embedded sections were prepared and stained with H&E for histopathological evaluation of tissue damage. The tissue damage was graded according to the following criteria: • 0. No change, • 1: slight, • 2: mild, • 3: moderate, • 4: severe The effect of each compound was evaluated using total score of tissue damage.

For experiment [2], the system named is stomatitis aggravated by 5-FU (cheek pouch mucosa). Briefly: Effects of Compound A on stomatitis: 5-FU plus cheek pouch scratching, hamster. It is filed as in vivo, Golden Syrian hamsters. As for the experimental part:
Male Golden Syrian hamsters (5 weeks old) were used. After 1 week acclimatization period, the hamsters were administered intraperitoneally with 60 mg/kg 5-fluorouracil (5-FU) (Day 1). 5-FU administration was repeated again on Day 2. On Day 4, the cheek pouch mucosa of the hamsters is mechanically irritated under anesthesia by superficial scratching with the tip of an 18-gauge needle to produce transient erythema. On Day 8 and 10, the same scratching procedure was conducted and 5-FU administration was done. The Compound A at the doses of 24 μg/site or vehicle was topically applied to the cheek pouches from Day 1 to Day 14. During the treatment, the cheek pouch mucosa was macroscopically observed and the buccal lesion was scored according to the following criteria (stomatitis score): • 0: Normal mucosa • 1: Erythema was observed • 2: Severe erythema was observed • 3: Severe erythema and formation of ulcers in one or more places were observed. Cumulative size of the ulcers involves ˜25% of the pouch mucosa. Pseudomembrane formation was evident. • 4: Severe erythema and formation of ulcers were observed. Cumulative size of the ulcers involved about half of the pouch mucosa. Loss of mucosal pliability. • 5: diffuse, extensive ulceration. Loss of mucosal pliability. […] Severity of stomatitis was evaluated using the mean of scores per treatment group.

As to `CC[C@H](C)CC(F)(F)[C@@]1(O)CC[C@H]2[C@@H](CC(=O)[C@@H]2CCCCCCC(=O)O)O1` [Compound A, (−)-7-{(2R,4aR,5R,7aR)-2-[(3S)-1,1-difluoro-3-methylpentyl]-2-hydroxy-6-oxooctahydrocyclopenta[b]pyran-5-yl}heptanoic acid], the “Total score (tissue damage)” value turned out to be 10.0 in experiment [1] (Compound A 3 μg/kg orally once daily, Schedule 1 (Day 0 to 4)); 5.0 in experiment [1] (Compound A 10 μg/kg orally once daily, Schedule 1 (Day 0 to 4)); 5.7 in experiment [1] (Compound A 30 μg/kg orally once daily, Schedule 1 (Day 0 to 4)); 4.3 in experiment [1] (Compound A 30 μg/kg orally once daily, Schedule 2 (Day 4 to Day 6)). In addition, the “Effect on total score of tissue damage (in words)” value in experiment [1] (at 10 or 30 μg/kg regardless of the dosing schedule) is “decreased total scores”. In addition, the “Effect on stomatitis compared to vehicle control group (in words)” value in experiment [2] (24 μg/site topical, stomatitis aggravated by 5-FU treatment) is reported as “improved stomatitis”. Moreover, in experiment [2] (24 μg/site topically to cheek pouches Day 1 to Day 14, 5-FU treatment yes, score 0-5, p < 0.05 vs. vehicle control), the “stomatitis score on Day 14 (Mean ± SE)” value is 0.25 ± 0.25.
